Reference: US6355799B1, “Substituted benzene compounds, process for their preparation, and herbicidal and defoliant compositions containing them” (ISK Americas Incorporated, priority 1997, dated 2002)

How the values were obtained:
Format in all cases: in vivo
[1] = test system: large crabgrass (Digitaria sanguinalis, DIGSA); experiment: Pre-emerge test, greenhouse herbicide activity screening; conditions: pre-emerge, rated 14 days after application, 0 = no damage, 100 = complete death
Procedure, shortened: (§1)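 Compounds in acetone were track-sprayed at 15-1000 g ai/ha (187 l/ha) on sandy loam pots: pre-emerge one day after seeding, post-emerge at 2-3 leaf stage with 0.25% v/v non-ionic surfactant. Phytotoxicity was rated 14 days later on a 0 (no damage) to 100 (complete death) scale.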

[2] = test system: ivyleaf morningglory (Ipomoea hederacea, IPOHE); experiment: as above; conditions: pre-emerge, rated 14 days after application, 0 = no damage, 100 = complete death
Procedure, shortened: as §1

[3] = test system: johnsongrass (Sorghum halepense, SORHA); experiment: as above; conditions: pre-emerge, rated 14 days after application, 0 = no damage, 100 = complete death
Procedure, shortened: as §1

[4] = test system: barnyardgrass (Echinochloa crus-galli, ECHCG); experiment: as above; conditions: pre-emerge, rated 14 days after application, 0 = no damage, 100 = complete death
Procedure, shortened: as §1

[5] = test system: sicklepod (Cassia obtusifolia, CASOB); experiment: as above; conditions: pre-emerge, rated 14 days after application, 0 = no damage, 100 = complete death
Procedure, shortened: as §1

[6] = test system: green foxtail (Setaria viridis, SETVI); experiment: as above; conditions: pre-emerge, rated 14 days after application, 0 = no damage, 100 = complete death
Procedure, shortened: as §1

[7] = test system: velvetleaf (Abutilon theophrasti, ABUTH); experiment: as above; conditions: pre-emerge, rated 14 days after application, 0 = no damage, 100 = complete death
Procedure, shortened: as §1

[8] = test system: lambsquarters (Chenopodium album, CHEAL); experiment: as above; conditions: pre-emerge, rated 14 days after application, 0 = no damage, 100 = complete death
Procedure, shortened: as §1

[9] = test system: common ragweed (Ambrosia artemisizfolia L., AMBEL); experiment: as above; conditions: pre-emerge, rated 14 days after application, 0 = no damage, 100 = complete death
Procedure, shortened: as §1

[10] = test system: redroot pigweed (Amaranthus retroflexus, AMARE); experiment: as above; conditions: pre-emerge, rated 14 days after application, 0 = no damage, 100 = complete death
Procedure, shortened: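 Sandy loam pots; pre-emerge: sown 1 d pre-spray, surface-watered after, then bottom-watered. Post-emerge: sown 8–21 d before, 2–3 leaf stage, + 0.25% v/v NIS, bottom-watered. Acetone, 187 l/ha track spray, 15–1000 g ai/ha. 0–100 injury score, day 14.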

[11] = test system: upland rice (Oryza sp., var. Tebonnet, RICE); experiment: Pre-emerge test, crop safety; conditions: pre-emerge, rated 14 days after application, 0 = no damage, 100 = complete death
Procedure, shortened: (§2)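 Visual ratings on a 0-100 scale (0 no damage, 100 all plants dead) were taken at 14 days after treatment. Rates of 15-1000 g ai/ha in acetone, 187 l/ha, were sprayed onto soil one day after planting (pre-emerge) or onto 2-3 leaf plants with 0.25% v/v surfactant (post-emerge).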

[12] = test system: field corn (Zea mays L., var. Dekalb 535, CORN); experiment: Pre-emerge test, crop safety; conditions: pre-emerge, rated 14 days after application, 0 = no damage, 100 = complete death
Procedure, shortened: as §2

[13] = test system: large crabgrass (Digitaria sanguinalis, DIGSA); experiment: Post-emerge test, greenhouse herbicide activity screening; conditions: phytotoxicity rating 0-100 (0 no damage, 100 complete death), 14 days after application
Procedure, shortened: (§3)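 Each test used a mechanized track sprayer delivering 187 l/ha of acetone solution at 15–1000 g ai/ha. Post-emerge foliage at 2–3 leaves was treated with added 0.25% v/v non-ionic surfactant and bottom-watered only. Injury was assessed on day 14, where 100 means total kill.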

[14] = test system: ivyleaf morningglory (Ipomoea hederacea, IPOHE); experiment: as above; conditions: phytotoxicity rating 0-100 (0 no damage, 100 complete death), 14 days after application
Procedure, shortened: as §3

[15] = test system: johnsongrass (Sorghum halepense, SORHA); experiment: as above; conditions: phytotoxicity rating 0-100 (0 no damage, 100 complete death), 14 days after application
Procedure, shortened: as §3

[16] = test system: redroot pigweed (Amaranthus retroflexus, AMARE); experiment: as above; conditions: phytotoxicity rating 0-100 (0 no damage, 100 complete death), 14 days after application
Procedure, shortened: as §3

[17] = test system: barnyardgrass (Echinochloa crus-galli, ECHCG); experiment: as above; conditions: phytotoxicity rating 0-100 (0 no damage, 100 complete death), 14 days after application
Procedure, shortened: as §3

[18] = test system: sicklepod (Cassia obtusifolia, CASOB); experiment: as above; conditions: phytotoxicity rating 0-100 (0 no damage, 100 complete death), 14 days after application
Procedure, shortened: as §3

[19] = test system: green foxtail (Setaria viridis, SETVI); experiment: as above; conditions: phytotoxicity rating 0-100 (0 no damage, 100 complete death), 14 days after application
Procedure, shortened: as §3

[20] = test system: velvetleaf (Abutilon theophrasti, ABUTH); experiment: as above; conditions: phytotoxicity rating 0-100 (0 no damage, 100 complete death), 14 days after application
Procedure, shortened: as §3

[21] = test system: lambsquarters (Chenopodium album, CHEAL); experiment: as above; conditions: phytotoxicity rating 0-100 (0 no damage, 100 complete death), 14 days after application
Procedure, shortened: as §3

[22] = test system: common ragweed (Ambrosia artemisizfolia L., AMBEL); experiment: as above; conditions: phytotoxicity rating 0-100 (0 no damage, 100 complete death), 14 days after application
Procedure, shortened: as §3

[23] = test system: upland rice (Oryza sp., var. Tebonnet, RICE); experiment: Post-emerge test, crop safety; conditions: phytotoxicity rating 0-100 (0 no damage, 100 complete death), 14 days after application
Procedure, shortened: as §1

[24] = test system: field corn (Zea mays L., var. Dekalb 535, CORN); experiment: Post-emerge test, crop safety; conditions: phytotoxicity rating 0-100 (0 no damage, 100 complete death), 14 days after application
Procedure, shortened: as §1

SMILES: COc1c(Cl)cc(F)c(-n2c(=O)cc(C(F)(F)F)n(C)c2=O)c1NS(=O)(=O)c1ccc(C)cc1 [2-26]
- Pre-emerge Herbicidal Activity DIGSA (phytotoxicity rating, scale 0-100) ([1]; 63 g ai/ha): 0
- Pre-emerge Herbicidal Activity DIGSA (phytotoxicity rating, scale 0-100) ([1]; 250 g ai/ha): 0
- Pre-emerge Herbicidal Activity IPOHE (phytotoxicity rating, scale 0-100) ([2]; 63 g ai/ha): 0
- Pre-emerge Herbicidal Activity IPOHE (phytotoxicity rating, scale 0-100) ([2]; 250 g ai/ha): 0
- Pre-emerge Herbicidal Activity SORHA (phytotoxicity rating, scale 0-100) ([3]; 63 g ai/ha): 0
- Pre-emerge Herbicidal Activity SORHA (phytotoxicity rating, scale 0-100) ([3]; 250 g ai/ha): 0
- Pre-emerge Herbicidal Activity ECHCG (phytotoxicity rating, scale 0-100) ([4]; 63 g ai/ha): 0
- Pre-emerge Herbicidal Activity ECHCG (phytotoxicity rating, scale 0-100) ([4]; 250 g ai/ha): 0
- Pre-emerge Herbicidal Activity CASOB (phytotoxicity rating, scale 0-100) ([5]; 63 g ai/ha): 0
- Pre-emerge Herbicidal Activity CASOB (phytotoxicity rating, scale 0-100) ([5]; 250 g ai/ha): 0
- Pre-emerge Herbicidal Activity SETVI (phytotoxicity rating, scale 0-100) ([6]; 63 g ai/ha): 0
- Pre-emerge Herbicidal Activity SETVI (phytotoxicity rating, scale 0-100) ([6]; 250 g ai/ha): 0
- Pre-emerge Herbicidal Activity ABUTH (phytotoxicity rating, scale 0-100) ([7]; 63 g ai/ha): 0
- Pre-emerge Herbicidal Activity ABUTH (phytotoxicity rating, scale 0-100) ([7]; 250 g ai/ha): 0
- Pre-emerge Herbicidal Activity CHEAL (phytotoxicity rating, scale 0-100) ([8]; 63 g ai/ha): 0
- Pre-emerge Herbicidal Activity CHEAL (phytotoxicity rating, scale 0-100) ([8]; 250 g ai/ha): 90
- Pre-emerge Herbicidal Activity AMBEL (phytotoxicity rating, scale 0-100) ([9]; 63 g ai/ha): 0
- Pre-emerge Herbicidal Activity AMBEL (phytotoxicity rating, scale 0-100) ([9]; 250 g ai/ha): 0
- Pre-emerge Herbicidal Activity AMARE (phytotoxicity rating, scale 0-100) ([10]; 63 g ai/ha): 0
- Pre-emerge Herbicidal Activity AMARE (phytotoxicity rating, scale 0-100) ([10]; 250 g ai/ha): 80
- Pre-emerge crop damage RICE (phytotoxicity rating, scale 0-100) ([11]; 63 g ai/ha): 0
- Pre-emerge crop damage RICE (phytotoxicity rating, scale 0-100) ([11]; 250 g ai/ha): 0
- Pre-emerge crop damage CORN (phytotoxicity rating, scale 0-100) ([12]; 63 g ai/ha): 0
- Pre-emerge crop damage CORN (phytotoxicity rating, scale 0-100) ([12]; 250 g ai/ha): 0
- Post-emerge Herbicidal Activity DIGSA ([13]; 63 g ai/ha): 0
- Post-emerge Herbicidal Activity DIGSA ([13]; 250 g ai/ha): 0
- Post-emerge Herbicidal Activity IPOHE ([14]; 63 g ai/ha): 0
- Post-emerge Herbicidal Activity IPOHE ([14]; 250 g ai/ha): 30
- Post-emerge Herbicidal Activity SORHA ([15]; 63 g ai/ha): 0
- Post-emerge Herbicidal Activity SORHA ([15]; 250 g ai/ha): 0
- Post-emerge Herbicidal Activity AMARE ([16]; 63 g ai/ha): 0
- Post-emerge Herbicidal Activity AMARE ([16]; 250 g ai/ha): 20
- Post-emerge Herbicidal Activity ECHCG ([17]; 63 g ai/ha): 0
- Post-emerge Herbicidal Activity ECHCG ([17]; 250 g ai/ha): 0
- Post-emerge Herbicidal Activity CASOB ([18]; 63 g ai/ha): 0
- Post-emerge Herbicidal Activity CASOB ([18]; 250 g ai/ha): 0
- Post-emerge Herbicidal Activity SETVI ([19]; 63 g ai/ha): 0
- Post-emerge Herbicidal Activity SETVI ([19]; 250 g ai/ha): 0
- Post-emerge Herbicidal Activity ABUTH ([20]; 63 g ai/ha): 0
- Post-emerge Herbicidal Activity ABUTH ([20]; 250 g ai/ha): 40
- Post-emerge Herbicidal Activity CHEAL ([21]; 63 g ai/ha): 0
- Post-emerge Herbicidal Activity CHEAL ([21]; 250 g ai/ha): 20
- Post-emerge Herbicidal Activity AMBEL ([22]; 63 g ai/ha): 0
- Post-emerge Herbicidal Activity AMBEL ([22]; 250 g ai/ha): 0
- Post-emerge Herbicidal Activity RICE (crop damage) ([23]; 63 g ai/ha): 0
- Post-emerge Herbicidal Activity RICE (crop damage) ([23]; 250 g ai/ha): 0
- Post-emerge Herbicidal Activity CORN (crop damage) ([24]; 63 g ai/ha): 0
- Post-emerge Herbicidal Activity CORN (crop damage) ([24]; 250 g ai/ha): 0
